Experimental data taken from patent publication US6395760B1, “Pesticidal 1-arylpyrazoles” (Rhone-Poulenc Inc., priority 1997, dated 2002).

Columns and labels:
Design in all cases: key: ‘X’ means highly active; ‘+’ means moderately active; ‘−’ means low activity
Musca domestica = experiment: Housefly bait/contact test; type: in vivo; conditions: 50 ppm in sugar water bait solution, adult houseflies, mortality after 24 hours
Text: The Housefly Bait/Contact Test About 25 four to six-day-old adult houseflies were anesthetized and placed in a cage with a sugar water bait solution containing the compound. The concentration of the selected compound of formula (I) in the bait solution was 50 ppm.

Schizaphis graminum = experiment: Soil drench test (systemic activity), greenbug on sorghum plants; type: in vivo; conditions: 10.0 ppm soil concentration by weight, counts at 5 DAT vs untreated control
Text: (§1) The Soil Drench Test (Systemic Activity) Cotton and sorghum plants were established in pots. One day prior to treatment, each pot was infested with about 25 aphids of a mixed population. Cotton plants were infested with aphids and sorghum plants were infested with the greenbug. The selected compound of formula (I) was applied to the soil surface in a dilution that delivered the equivalent of 10.0 ppm soil concentration by weight. Aphid counts were obtained at 5 DAT (=days after treatment). The number of aphids on the treated plants was compared to the number of those on the untreated control plants.

Aphis gossypii = experiment: Soil drench test (systemic activity), aphids on cotton plants; type: in vivo; conditions: 10.0 ppm soil concentration by weight, aphid counts at 5 DAT vs untreated control
Text: as §1

A. gossypii = experiment: Foliar application (contact test) with aphids; type: in vivo, Aphis gossypii; conditions: 100 ppm formulation sprayed to runoff on aphid-infested cotton plants, dead aphids counted three days after treatment
Text: Foliar Application (Contact Test) with Aphids Aphid-infested cotton plants were placed on a revolving turntable, and sprayed to runoff with a 100 ppm formulation of the selected compound of formula (I). The treated, A. gossypii-infested plants were held for three days after treatment, after which the dead aphids were counted.

SMILES	Activity on house flies by contact (Musca domestica)	Systemic activity on greenbugs (Schizaphis graminum)	Systemic activity on aphids (Aphis gossypii)	Foliar activity on aphids (A. gossypii)
CNc1c([S+](C)[O-])c(C2(C)OCCO2)nn1-c1c(Cl)cc(C(F)(F)F)cc1Cl (racemic) [Compound 39]	−	X	+	
COC(C)(OC)c1nn(-c2c(Cl)cc(C(F)(F)F)cc2Cl)c(N)c1SC [Compound 1, 5-amino-1-[2,6-dichloro-4-(trifluoromethyl)phenyl]-3-[(1,1-dimethoxy)ethyl]-4-methylthio-1H-pyrazole]	X	X	X	+
COC(C)(OC)c1nn(-c2c(Cl)cc(C(F)(F)F)cc2Cl)c(N)c1[S+](C)[O-] (stereo not drawn) [Compound 2]	X	X	+	X
CSc1c(C2(C)OCCO2)nn(-c2c(Cl)cc(C(F)(F)F)cc2Cl)c1N [Compound 3]	X	X	X	X
CSc1c(C2(C)OCC(C)O2)nn(-c2c(Cl)cc(C(F)(F)F)cc2Cl)c1N (stereo not drawn) [Compound 4]	X	X	X	X
CC1(c2nn(-c3c(Cl)cc(C(F)(F)F)cc3Cl)c(N)c2S(C)(=O)=O)OCCO1 [Compound 5]	X	X	X	X
CSc1c(C2(C)OCC(CO)O2)nn(-c2c(Cl)cc(C(F)(F)F)cc2Cl)c1N (stereo not drawn) [Compound 6]	−	X	+	−
CC1(c2nn(-c3c(Cl)cc(C(F)(F)F)cc3Cl)c(N)c2S(C)(=O)=O)OCC(CO)O1 (stereo not drawn) [Compound 7]	+	X	X	X
CC1COC(C)(c2nn(-c3c(Cl)cc(C(F)(F)F)cc3Cl)c(N)c2S(C)(=O)=O)O1 (stereo not drawn) [Compound 8]	X	X	X	X
C[S+]([O-])c1c(C2(C)OCCO2)nn(-c2c(Cl)cc(C(F)(F)F)cc2Cl)c1N (stereo not drawn) [Compound 10, 5-amino-1-[2,6-dichloro-4-(trifluoromethyl)phenyl]-3-(2-methyl-1,3-dioxolane-2-yl)-4-methylsulfinyl-1H-pyrazole]	X	X	X	X
CC1COC(C)(c2nn(-c3c(Cl)cc(C(F)(F)F)cc3Cl)c(N)c2[S+](C)[O-])O1 (stereo not drawn) [Compound 11]	X	X	X	X
CSc1c(C2(C)OCCCO2)nn(-c2c(Cl)cc(C(F)(F)F)cc2Cl)c1N [Compound 12]	X	X	X	X
CC1(c2nn(-c3c(Cl)cc(C(F)(F)F)cc3Cl)c(N)c2S(C)(=O)=O)OCCCO1 [Compound 13]	X	X		X
CSc1c(C2(C)OCC(CO)(CO)CO2)nn(-c2c(Cl)cc(C(F)(F)F)cc2Cl)c1N [Compound 14]	−		−	−
C[S+]([O-])c1c(C2(C)NCCS2)nn(-c2c(Cl)cc(C(F)(F)F)cc2Cl)c1N (stereo not drawn) [Compound 15, 5-amino-1-[2,6-dichloro-4-(trifluoromethyl)phenyl]-3-(2-methylthiazolidine-2-yl)-4-methylsulfinyl-1H-pyrazole]	X	X	X	−
CSc1c(C2(C)SCCS2)nn(-c2c(Cl)cc(C(F)(F)F)cc2Cl)c1N [Compound 16, 5-amino-1-[2,6-dichloro-4-(trifluoromethyl)phenyl]-3-(2-methyl-1,3-dithiolane-2-yl)-4-methylthio-1H-pyrazole]	X	X	−	+
CC1(c2nn(-c3c(Cl)cc(C(F)(F)F)cc3Cl)c(N)c2S(C)(=O)=O)SCCS1 [Compound 17]	X	X	X	+
C[S+]([O-])c1c(C2(C)SCCS2)nn(-c2c(Cl)cc(C(F)(F)F)cc2Cl)c1N (stereo not drawn) [Compound 18]	X	+	−	X
CSc1c(C2(C)SCC[S+]2[O-])nn(-c2c(Cl)cc(C(F)(F)F)cc2Cl)c1N (stereo not drawn) [Compound 19]	X	+	−	X
CC1(c2nn(-c3c(Cl)cc(C(F)(F)F)cc3Cl)c(N)c2S(C)(=O)=O)OCCS1 (stereo not drawn) [Compound 23, 5-amino-1-[2,6-dichloro-4-(trifluoromethyl)phenyl]-3-(2-methyl-1,3-oxathiolane-2-yl)-4-methylsulfonyl-1H-pyrazole]	−		X	
CSc1c(C2(C)OCCS2)nn(-c2c(Cl)cc(C(F)(F)F)cc2Cl)c1N (stereo not drawn) [Compound 24]		X	X	
CC1(c2nn(-c3c(Cl)cc(C(F)(F)F)cc3Cl)c(N)c2S(C)(=O)=O)S(=O)(=O)CCS1(=O)=O [Compound 25, 5-amino-1-[2,6-dichloro-4-(trifluoromethyl)phenyl]-3-(2-methyl-1,1,3,3-tetraoxo-1,3-dithiolane-2-yl)-4-methylsulfonyl-1H-pyrazole]	−		−	
CSCC1COC(C)(c2nn(-c3c(Cl)cc(C(F)(F)F)cc3Cl)c(N)c2S(C)(=O)=O)O1 (stereo not drawn) [Compound 30]	−		X	
C[S+]([O-])CC1COC(C)(c2nn(-c3c(Cl)cc(C(F)(F)F)cc3Cl)c(N)c2S(C)(=O)=O)O1 (stereo not drawn) [Compound 31]	+		X	+
CCNc1c(SC)c(C2(C)OCCO2)nn1-c1c(Cl)cc(C(F)(F)F)cc1Cl [Compound 36]	X		X	+
CCNc1c([S+](C)[O-])c(C2(C)OCCO2)nn1-c1c(Cl)cc(C(F)(F)F)cc1Cl (stereo not drawn) [Compound 37]	X		X	X
CNc1c(SC)c(C2(C)OCCO2)nn1-c1c(Cl)cc(C(F)(F)F)cc1Cl [Compound 38]	X	X	X	
